Assay results taken from paper PMC7904875, “Identification and Functional Analysis of SlitOBP11 From Spodoptera litura” (Frontiers in Physiology, 2021).

Target: T1, SlitOBP11 (Spodoptera litura, UniProt A0A9J7E9A4)
T1 construct: gene LOC111356549; mature protein, predicted 23-residue signal peptide removed; ORF 465 bp, given as 155 aa; pET32a(+) (BamHI/HindIII), E. coli BL21(DE3); Ni-NTA purified, tag cleaved with enterokinase
T1 sequence (A0A9J7E9A4 24-154): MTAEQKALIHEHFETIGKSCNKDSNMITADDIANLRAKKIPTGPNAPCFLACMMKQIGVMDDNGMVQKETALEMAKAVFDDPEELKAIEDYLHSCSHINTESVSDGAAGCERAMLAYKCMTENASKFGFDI
Assay: competitive displacement of 1-NPN fluorescence
Format: binding
Settings: not given
Description: competitive displacement of 1-NPN fluorescence on SlitOBP11

| Compound | IC50 [µM] |
| --- | --- |
| O=CCc1ccccc1 [Phenylacetaldehyde] | 43.4 ± 10.1 |

Same assay, conditions: read-out: Ki (μmol L^-1)^∗

| Compound | Ki [µM] |
| --- | --- |
| CC/C=C/CCCCCCCCCCOC(C)=O [(E)-11-tetradecenly acetate, (E)-11-Tetradecenyl acetate] | 13.5 ± 0.479 |
| CCCC/C=C\CCCCCCCCOC(C)=O [(Z)-9-tetradecenyl acetate, (Z)-9-Tetradecenyl acetate] | 9.97 ± 0.492 |
| CC/C=C/C=C\CCCCCCCCOC(C)=O [(Z, E)-9,11-tetradecadienyl acetate, (Z,E)-9,11-Tetradecadienyl acetate] | 13.9 ± 1.44 |
| C/C=C/C/C=C\CCCCCCCCOC(C)=O [(Z, E)-9,12-tetradecadienyl acetate, (Z,E)-9,12-Tetradecadienyl acetate] | 14.4 ± 0.317 |
| CC(=O)OCCc1ccccc1 [Phenethyl acetate] | 43.1 ± 0.488 |
| O=CCc1ccccc1 [Phenylacetaldehyde] | 35.8 ± 9.76 |

Target: T1, SlitOBP11
Assay: competitive displacement of 1-NPN fluorescence
Format: binding
Settings: not given
Remark: another data set of the same source

| Compound | IC50 [µM] |
| --- | --- |
| CCCCC(C)=O [2-hexanone] | > 50 |
| CCCC(=O)CC [3-hexanone] | > 50 |
| CC(C)CC(=O)O [3-methylbutyric acid] | > 50 |
| CCC(C)CC(=O)O (stereo not drawn) [3-methylpentanoic acid] | > 50 |
| CC(C)CCC(=O)O [4-methylpentanoic acid] | > 50 |
| C=C(C)[C@H]1CC=C(C)C(=O)C1 [(+)-Carvone] | > 50 |
| C=C(C)[C@H]1CC=C(C)CC1 [(R)-(+)-limonene] | > 50 |
| CCCC/C=C\CCCCCCCCOC(C)=O [(Z)-9-tetradecenyl acetate, (Z)-9-Tetradecenyl acetate] | 11.2 ± 0.55 |
| CC/C=C/C=C\CCCCCCCCOC(C)=O [(Z, E)-9,11-tetradecadienyl acetate, (Z,E)-9,11-Tetradecadienyl acetate] | 15.6 ± 1.41 |
| C/C=C/C/C=C\CCCCCCCCOC(C)=O [(Z, E)-9,12-tetradecadienyl acetate, (Z,E)-9,12-Tetradecadienyl acetate] | 16.2 ± 0.32 |
| CC(=O)O [Acetic acid] | > 50 |
| CC1=CCCC(C)(C)C1/C=C/C(C)O (stereo not drawn) [Alpha- ionol] | > 50 |
| CC1=CCC(C(C)C)C=C1 (stereo not drawn) [Alpha-phellandrene] | > 50 |
| O=Cc1ccccc1 [Benzaldehyde] | > 50 |
| CC(=O)OCc1ccccc1 [Benzyl acetate] | > 50 |
| OCc1ccccc1 [Benzyl alcohol] | > 50 |
| C=C1CC/C=C(\C)CC[C@@H]2[C@@H]1CC2(C)C [Beta-caryophyllene] | > 50 |
| CC(=O)/C=C/C1=C(C)CCCC1(C)C [Beta-ionone] | > 50 |
| CCCC(=O)O [Butyric acid] | > 50 |
| CC/C=C\CCOC(C)=O [Cis-3-hexenyl acetate] | > 50 |
| CCCCCCCCCC=O [Decanal] | > 50 |

| Compound | IC50 [µM] |
| --- | --- |
| CCCCCCCCCCCC [Dodecane] | > 50 |
| CCc1ccccc1 [Ethylbenzene] | > 50 |
| CC12CCC(CC1)C(C)(C)O2 [Eucalyptol] | > 50 |
| CC(=O)OC/C=C(\C)CCC=C(C)C [Geranyl acetate] | > 50 |
| CC(=O)CC/C=C(\C)CCC=C(C)C [Geranylacetone] | > 50 |
| CCCCCCC(=O)O [Heptanoic acid] | > 50 |
| CCCCCC(=O)O [Hexanoic acid] | > 50 |
| c1ccc2[nH]ccc2c1 [Indole] | > 50 |
| CC(C)C(=O)O [Isobutyric acid] | > 50 |
| COC(=O)c1ccccc1O [Methyl salicylate] | > 50 |
| C=CC(=C)CCC=C(C)C [Myrcene] | > 50 |
| CCCCCCCCCCCCCCCCCC [N-octadecane] | > 50 |
| CCCCCCCC=O [Octyl aldehyde] | > 50 |
| CCCCC(=O)O [Pentanoic acid] | > 50 |
| CC(=O)OCCc1ccccc1 [Phenethyl acetate] | 48.6 ± 0.52 |
| OCCc1ccccc1 [Phenethyl alcohol] | > 50 |
| CCC(=O)O [Propanoic acid] | > 50 |
| CCCCCCCCCCCCCC [Tetradecane] | > 50 |
| C=CC(C)(O)CC/C=C(\C)CCC=C(C)C (stereo not drawn) [Trans-nerolidol] | > 50 |
| CCCCCCCCCCCCC [Tridecane] | > 50 |

Same assay, conditions: 2 μM protein, 2 μM 1-NPN, 30 mM Tris-HCl pH 7.4, 4°C; read-out: IC50

| Compound | IC50 [µM] |
| --- | --- |
| Farnesene | > 50 |

Same assay, conditions: read-out: IC50

| Compound | IC50 [µM] |
| --- | --- |
| C=CC(C)(O)CCC=C(C)C (racemic) [(±)-Linalool] | > 50 |
| CC/C=C/CCCCCCCCCCOC(C)=O [(E)-11-tetradecenly acetate, (E)-11-Tetradecenyl acetate] | 15.2 ± 0.54 |
| COC(=O)c1ccccc1N [Methyl anthranilate] | > 50 |

Same assay, conditions: read-out: IC50 (μmol L^-1); 2 μM protein, 2 μM 1-NPN, 30 mM Tris-HCl pH 7.4, 4°C

| Compound | IC50 [µM] |
| --- | --- |
| C/C=C/C(=O)O [Crotonic acid] | > 50 |

Target: T1, SlitOBP11
Assay: fluorescence titration, Scatchard
Format: binding
Settings: read-out: dissociation constant

| Compound | Kd [µM] |
| --- | --- |
| c1ccc(Nc2cccc3ccccc23)cc1 [1-NPN, 1-N-Phenyl-naphthylamine] | 8.09 ± 0.26 |
